How the values were obtained:
[1] = Selectivity index, ratio of CC50 for MDCK cells to IC50 for Influenza A virus (A/California/07/09(H1N1)) pdm09; format: functional
[2] = Antiviral activity against Influenza A virus (A/California/07/09(H1N1))pdm09 infected in MDCK cells assessed as decrease in virus production preincubated for 1 hr with cells followed by viral infection measured after 24 hrs by hemagglutination assay; format: functional, cell-based, Influenza A virus (A/California/07/2009(H1N1))
[3] = Cytotoxicity against MDCK cells assessed as increase in cell death after 48 hrs by MTT assay; format: toxicity, cell-based, Canis lupus familiaris; settings: dog
[4] = test system: Machupo mammarenavirus; experiment: Antiviral activity against Machupo virus; format: functional; settings: Mammarenavirus machupoense
[5] = test system: Sabia virus; experiment: Antiviral activity against Sabia virus; format: functional
[6] = test system: Guanarito virus; experiment: Antiviral activity against Guanarito virus; format: functional; settings: Mammarenavirus guanaritoense
[7] = test system: Lassa virus; experiment: Antiviral activity against Lassa virus; format: functional; settings: Mammarenavirus lassaense
[8] = test system: Junin virus; experiment: Antiviral activity against Junin virus; format: functional; settings: Mammarenavirus juninense

Compound	Ratio CC50/IC50 [1]	IC50 [2]	CC50 at 48 h [3]	IC50 [4]	IC50 [5]	IC50 [6]	IC50 [7]	IC50 [8]
O=C(Nc1nc2ccccc2n1CCOc1ccccc1)c1ccco1	50	42.9 µM	2160 µM	–	–	–	–	–
O=C(Nc1nc2ccccc2n1CCOc1ccc(Cl)cc1)c1ccco1	6	57.6 µM	346 µM	–	–	–	–	–
S=C(Nc1ccccc1)Nc1nc2ccccc2n1CCOc1ccc(Br)cc1	<1	> 21.4 µM	20.3 µM	–	–	–	–	–
S=C(Nc1ccccc1)Nc1nc2ccccc2n1CCOc1ccccc1	1	25.8 µM	25.8 µM	–	–	–	–	–
Cl.N=c1n(Cc2ccc(F)cc2)c2ccccc2n1Cc1ccc(Cl)c(Cl)c1	5	4.5 µM	21.8 µM	–	–	–	–	–
O=C(/N=c1\[nH]c2ccccc2n1CCOc1ccc(F)cc1)c1ccc(Cl)cc1	>7	112 µM	> 732 µM	–	–	–	–	–
Br.C=CCn1c(=N)n(CCOc2ccc(C(C)(C)C)cc2)c2ccccc21	8	1.6 µM	12.8 µM	–	–	–	–	–
CC(C)(C)c1ccc(OCCn2c(=N)n(CC(N)=O)c3ccccc32)cc1.Cl	5	27.5 µM	151 µM	–	–	–	–	–
O=C(/N=c1\[nH]c2ccccc2n1CCOc1ccc(F)cc1)c1ccc([N+](=O)[O-])cc1	>5	543 µM	> 2550 µM	–	–	–	–	–
Cl.N=c1n(CCO)c2ccccc2n1Cc1ccc(Cl)c(Cl)c1	83	2.4 µM	202 µM	–	–	–	–	–
O=C(/N=c1\[nH]c2ccccc2n1CCOc1cccc(Cl)c1)c1ccco1	63	13.1 µM	820 µM	–	–	–	–	–
Cl.N=c1n(CC(N)=O)c2ccccc2n1Cc1ccc(Cl)c(Cl)c1	28	7 µM	196 µM	–	–	–	–	–
O=C(/N=c1\[nH]c2ccccc2n1CCOc1ccc(Cl)cc1)c1cccs1	8	297 µM	2240 µM	–	–	–	–	–
Cl.N=c1n(CO)c2ccccc2n1CCOc1ccc(Cl)cc1	9	4.6 µM	40.8 µM	–	–	–	–	–
Cc1ccccc1OCCn1/c(=N/C(=O)c2cccs2)[nH]c2ccccc21	5	33.2 µM	159 µM	–	–	–	–	–
O=C(/N=c1\[nH]c2ccccc2n1CCOc1ccc(Br)cc1)c1cccs1	>7	317 µM	> 2260 µM	–	–	–	–	–
Cl.N=c1n(CCOc2ccc(F)cc2)c2ccccc2n1CC(N)=O	23	54.8 µM	1260 µM	–	–	–	–	–
COc1ccc(OCCn2/c(=N/C(=O)c3cccs3)[nH]c3ccccc32)cc1	>6	450 µM	> 2540 µM	–	–	–	–	–
COc1ccc(-n2cnc3cc(NCc4ccc(C)cc4)ccc32)cc1	–	–	–	0.2 to 12 nM	0.2 to 12 nM	0.2 to 12 nM	1.6 nM	0.2 to 12 nM
Br.Cc1ccc(OCCn2c(=N)n(Cc3ccc(Cl)c(Cl)c3)c3ccccc32)cc1	11	0.6 µM	13.2 µM	–	–	–	–	–
Br.C=CCn1c(=N)n(CCCOc2ccc(F)cc2)c2ccccc21	8	9.9 µM	80.1 µM	–	–	–	–	–
CC(C)(C)c1ccc(C(=O)/N=c2\[nH]c3ccccc3n2CCOc2ccc(Br)cc2)cc1	54	37.4 µM	2030 µM	–	–	–	–	–
Cc1ccc(OCCn2c(=N)n(CC(N)=O)c3ccccc32)cc1.Cl	9	35.8 µM	309 µM	–	–	–	–	–
